Test results: PubChem BioAssay AID180 (DTP/NCI, 2004)
“And” between values parts separate entries of the source, which are not always exact repeats. Identical values can stand only once.

System: BDF1 mice, Adenocarcinoma 755 s.c., tumor weight T/C
Experiment: NCI In Vivo Anticancer Drug Screen. Data for tumor model Adenocarcinoma 755 (subcutaneous) in B6D2F1 (BDF1) mice
Conditions: endpoint: mean tumor weight, higher = larger tumour
How it was run: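 Transplantable tumor implanted; mice dosed with compound or vehicle; survival or tumor size recorded; ratio of treated to vehicle control reported.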

[1] = dose: 15.0 mg/kg/injection, schedule: Q01DX011 (ip), vehicle: methylcellulose (MC)
[2] = dose: 31.0 mg/kg/injection, schedule: Q01DX011 (ip), vehicle: methylcellulose (MC)
[3] = dose: 62.0 mg/kg/injection, schedule: Q01DX011 (ip), vehicle: methylcellulose (MC)
[4] = dose: 125.0 mg/kg/injection, schedule: Q01DX011 (ip), vehicle: methylcellulose (MC)
[5] = dose: 250.0 mg/kg/injection, schedule: Q01DX011 (ip), vehicle: methylcellulose (MC)
[6] = dose: 2.5 mg/kg/injection, schedule: Q01DX011 (ip), vehicle: methylcellulose (MC)
[7] = dose: 5.0 mg/kg/injection, schedule: Q01DX011 (ip), vehicle: methylcellulose (MC)
[8] = dose: 10.0 mg/kg/injection, schedule: Q01DX011 (ip), vehicle: methylcellulose (MC)
[9] = dose: 12.5 mg/kg/injection, schedule: Q01DX011 (ip), vehicle: methylcellulose (MC)
[10] = dose: 25.0 mg/kg/injection, schedule: Q01DX011 (ip), vehicle: methylcellulose (MC)
[11] = dose: 12.0 mg/kg/injection, schedule: Q01DX011 (ip), vehicle: carboxymethylcellulose (CMC)
[12] = dose: 25.0 mg/kg/injection, schedule: Q01DX011 (ip), vehicle: carboxymethylcellulose (CMC)
[13] = dose: 6.25 mg/kg/injection, schedule: Q01DX011 (ip), vehicle: methylcellulose (MC)

N#CCCNC(=O)Nc1ccccc1
T/C [1]: 63 % of control | T/C [2]: 74 % of control | T/C [3]: 58 % of control | T/C [4]: 101 % of control | T/C [5]: 93 % of control

NC(N)=N/N=C/c1c(O)ccc2ccccc12
T/C (dose: 12.5 mg/kg/injection, schedule: Q01DX011 (ip), vehicle: saline): 77 % of control | T/C (dose: 25.0 mg/kg/injection, schedule: Q01DX011 (ip), vehicle: saline): 67 % of control | T/C (dose: 50.0 mg/kg/injection, schedule: Q01DX011 (ip), vehicle: saline): 54 % of control

CC(Sc1ncnc2nc[nH]c12)c1ccccc1 (configuration not stated)
T/C (dose: 0.37 mg/kg/injection, schedule: Q01DX011 (ip), vehicle: methylcellulose (MC)): 60 % of control | T/C (dose: 0.65 mg/kg/injection, schedule: Q01DX011 (ip), vehicle: methylcellulose (MC)): 83 % of control | T/C (dose: 1.11 mg/kg/injection, schedule: Q01DX011 (ip), vehicle: methylcellulose (MC)): 35 % of control | T/C (dose: 1.3 mg/kg/injection, schedule: Q01DX011 (ip), vehicle: methylcellulose (MC)): 97 % of control | T/C [6]: 37 % of control | T/C (dose: 3.33 mg/kg/injection, schedule: Q01DX011 (ip), vehicle: methylcellulose (MC)): 62 % of control | T/C [7]: 12 % of control | T/C [8]: 18 % of control

O=C(O)Cn1cccc1
T/C (dose: 250.0 mg/kg/injection, schedule: Q01DX011 (ip), vehicle: other): 80 % of control | T/C (dose: 500.0 mg/kg/injection, schedule: Q01DX011 (ip), vehicle: other): 98 % of control | T/C (dose: 4000.0 mg/kg/injection, schedule: Q01DX011 (ip), vehicle: other): 70 % of control

C[C@]12CCC(=O)C=C1CC[C@@H]1[C@@H]2[C@@H](O)C[C@@]2(C)[C@H]1CC[C@]2(O)C(=O)COC(=O)COCC(=O)O
T/C (dose: 50.0 mg/kg/injection, schedule: Q01DX011 (ip), vehicle: steriod suspending solution): 53 % of control | T/C (dose: 50.0 mg/kg/injection, schedule: Q01DX011 (sc), vehicle: steriod suspending solution): 54 % of control | T/C (dose: 100.0 mg/kg/injection, schedule: Q01DX011 (ip), vehicle: steriod suspending solution): 22 % of control | T/C (dose: 100.0 mg/kg/injection, schedule: Q01DX011 (sc), vehicle: steriod suspending solution): 62 % of control | T/C (dose: 200.0 mg/kg/injection, schedule: Q01DX011 (ip), vehicle: steriod suspending solution): 12 % of control | T/C (dose: 200.0 mg/kg/injection, schedule: Q01DX011 (sc), vehicle: steriod suspending solution): 56 % of control | T/C (dose: 400.0 mg/kg/injection, schedule: Q01DX011 (sc), vehicle: steriod suspending solution): 31 % of control

Nc1nc(SCc2ccccc2F)c2ncn(C3OC(CO)C(O)C3O)c2n1 (configuration not stated)
T/C (dose: 1.5 mg/kg/injection, schedule: Q01DX011 (ip), vehicle: methylcellulose (MC)): 106 % of control | T/C (dose: 3.1 mg/kg/injection, schedule: Q01DX011 (ip), vehicle: methylcellulose (MC)): 41 % of control | T/C (dose: 6.2 mg/kg/injection, schedule: Q01DX011 (ip), vehicle: methylcellulose (MC)): 7 % of control and 14 % of control | T/C [9]: 1 % of control | T/C [10]: 5 % of control

O=c1[nH]cc(Br)c(=S)[nH]1
T/C [1]: 64 % of control | T/C [2]: 86 % of control | T/C [3]: 80 % of control | T/C [4]: 119 % of control | T/C [5]: 109 % of control

O=c1[nH]c(Br)nc2nc[nH]c12
T/C (dose: 30.0 mg/kg/injection, schedule: Q01DX011 (ip), vehicle: carboxymethylcellulose (CMC)): 99 % of control | T/C (dose: 60.0 mg/kg/injection, schedule: Q01DX011 (ip), vehicle: carboxymethylcellulose (CMC)): 98 % of control | T/C (dose: 120.0 mg/kg/injection, schedule: Q01DX011 (ip), vehicle: carboxymethylcellulose (CMC)): 81 % of control | T/C (dose: 240.0 mg/kg/injection, schedule: Q01DX011 (ip), vehicle: carboxymethylcellulose (CMC)): 92 % of control

CN(N=O)C(N)=O
T/C [6]: 109 % of control | T/C (dose: 2.81 mg/kg/injection, schedule: Q01DX011 (ip), vehicle: carboxymethylcellulose (CMC)): 78 % of control | T/C (dose: 3.16 mg/kg/injection, schedule: Q01DX011 (ip), vehicle: carboxymethylcellulose (CMC)): 78 % of control | T/C [7]: 97 % of control | T/C (dose: 5.62 mg/kg/injection, schedule: Q01DX011 (ip), vehicle: carboxymethylcellulose (CMC)): 120 % of control | T/C (dose: 6.32 mg/kg/injection, schedule: Q01DX011 (ip), vehicle: carboxymethylcellulose (CMC)): 76 % of control | T/C (dose: 6.33 mg/kg/injection, schedule: Q01DX011 (ip), vehicle: carboxymethylcellulose (CMC)): 79 % of control | T/C (dose: 7.2 mg/kg/injection, schedule: Q01DX011 (ip), vehicle: carboxymethylcellulose (CMC)): 108 % of control | T/C (dose: 9.0 mg/kg/injection, schedule: Q01DX011 (ip), vehicle: carboxymethylcellulose (CMC)): 77 % of control | T/C [8]: 87 % of control | T/C (dose: 10.12 mg/kg/injection, schedule: Q01DX011 (ip), vehicle: carboxymethylcellulose (CMC)): 109 % of control and 119 % of control | T/C [11]: 79 % of control | T/C (dose: 13.0 mg/kg/injection, schedule: Q01DX011 (ip), vehicle: carboxymethylcellulose (CMC)): 93 % of control | T/C (dose: 15.0 mg/kg/injection, schedule: Q01DX011 (ip), vehicle: carboxymethylcellulose (CMC)): 97 % of control and 85 % of control | T/C (dose: 18.0 mg/kg/injection, schedule: Q01DX011 (ip), vehicle: carboxymethylcellulose (CMC)): 13 % of control | T/C (dose: 20.0 mg/kg/injection, schedule: Q01DX011 (ip), vehicle: methylcellulose (MC)): 27 % of control | T/C (dose: 22.5 mg/kg/injection, schedule: Q01DX011 (ip), vehicle: carboxymethylcellulose (CMC)): 21 % of control and 42 % of control | T/C [12]: 24 % of control

CCCCNc1ncnc2c1cnn2C1CCCCO1 (configuration not stated)
T/C (dose: 3.12 mg/kg/injection, schedule: Q01DX011 (ip), vehicle: methylcellulose (MC)): 39 % of control | T/C [13]: 44 % of control | T/C [9]: 20 % of control | T/C [10]: 12 % of control

CCCN1CCC(=O)NC1=S
T/C [1]: 81 % of control | T/C [2]: 64 % of control | T/C [3]: 74 % of control | T/C [4]: 93 % of control

O=c1[nH]c2nc(Cl)nc(Cl)c2[nH]1
T/C [12]: 54 % of control | T/C (dose: 75.0 mg/kg/injection, schedule: Q01DX011 (ip), vehicle: carboxymethylcellulose (CMC)): 117 % of control | T/C (dose: 225.0 mg/kg/injection, schedule: Q01DX011 (ip), vehicle: carboxymethylcellulose (CMC)): 92 % of control

Cc1ccc(C(=O)[O][Hg][CH2]C2COC([CH2][Hg][O]C(=O)c3ccc(C)cc3)CO2)cc1 (configuration not stated)
T/C [13]: 101 % of control | T/C [10]: 61 % of control | T/C (dose: 50.0 mg/kg/injection, schedule: Q01DX011 (ip), vehicle: methylcellulose (MC)): 38 % of control

O=Cc1ccccc1
T/C (dose: 3.12 mg/kg/injection, schedule: Q01DX011 (ip), vehicle: Klucel (hydroxypropylcellulose) (HPC)): 80 % of control | T/C (dose: 6.25 mg/kg/injection, schedule: Q01DX011 (ip), vehicle: Klucel (hydroxypropylcellulose) (HPC)): 52 % of control | T/C (dose: 12.5 mg/kg/injection, schedule: Q01DX011 (ip), vehicle: Klucel (hydroxypropylcellulose) (HPC)): 72 % of control | T/C (dose: 25.0 mg/kg/injection, schedule: Q01DX011 (ip), vehicle: Klucel (hydroxypropylcellulose) (HPC)): 109 % of control | T/C (dose: 50.0 mg/kg/injection, schedule: Q01DX011 (ip), vehicle: Klucel (hydroxypropylcellulose) (HPC)): 106 % of control | T/C (dose: 100.0 mg/kg/injection, schedule: Q01DX011 (ip), vehicle: Klucel (hydroxypropylcellulose) (HPC)): 80 % of control | T/C (dose: 200.0 mg/kg/injection, schedule: Q01DX011 (ip), vehicle: Klucel (hydroxypropylcellulose) (HPC)): 55 % of control | T/C (dose: 400.0 mg/kg/injection, schedule: Q01DX011 (ip), vehicle: Klucel (hydroxypropylcellulose) (HPC)): 56 % of control

c1ccc(CSc2ncnc3nc[nH]c23)nc1
T/C (dose: 0.75 mg/kg/injection, schedule: Q01DX011 (ip), vehicle: carboxymethylcellulose (CMC)): 102 % of control | T/C (dose: 1.5 mg/kg/injection, schedule: Q01DX011 (ip), vehicle: carboxymethylcellulose (CMC)): 40 % of control | T/C (dose: 3.0 mg/kg/injection, schedule: Q01DX011 (ip), vehicle: carboxymethylcellulose (CMC)): 26 % of control | T/C (dose: 6.0 mg/kg/injection, schedule: Q01DX011 (ip), vehicle: carboxymethylcellulose (CMC)): 9 % of control | T/C [11]: 7 % of control | T/C (dose: 50.0 mg/kg/injection, schedule: Q01DX011 (ip), vehicle: carboxymethylcellulose (CMC)): 5 % of control | T/C (dose: 100.0 mg/kg/injection, schedule: Q01DX011 (ip), vehicle: carboxymethylcellulose (CMC)): 4 % of control
